Measurements reported in patent publication US12029751B2, “Therapeutic agent for nervous system disease” (OSAKA UNIVERSITY, priority 2017, dated 2024).

System: Akt-mTOR pathway
Experiment: Western blot of Akt, 4EBP1 and S6K phosphorylation (mechanism of macrophage induction)
Format: cell-based, mouse
Conditions: IL-4 20 ng/ml + MeCbl 1 mM + RAD001 (200 nM), 30 minutes
Experimental: The J774A.1 cells (Example 5-1) were seeded on a dish having a diameter of 6 cm. After 4 days, proteins were collected using a cell lysis buffer containing a cocktail of protease inhibitors. The protein concentration was measured by BCA assay. Then, 50 μg of each sample was subjected to SDS-PAGE, and the electrophoresed proteins were transferred to a polyvinylidene difluoride membrane. The membrane was blocked with a blocking buffer for 1 hour, and then the proteins were allowed to react with primary antibodies at 4° C. overnight. The proteins were further allowed to react with a secondary antibody at room temperature for 1 hour and detected using ECL Western Blotting Detection System. To detect the M1 markers iNOS and IL-1β, lipopolysaccharide (LPS) (100 ng/ml) and methylcobalamin were added at 24 hours before collecting the proteins. To detect the M2 markers Arg1 and CD206, IL-4 (20 ng/ml) and methylcobalamin were added at 72 hours before collecting the proteins.
The mechanism of the macrophage induction (Example 5) by methylcobalamin was analyzed. Specifically, the analysis was carried out as follows. At 30 minutes after IL-4 and methylcobalamin (100 nM and 1 mM) were added, activation of Akt, 4EBP1, and S6K in the Akt-mTOR pathway (one of the major signaling pathways that induce M2 gene expression) was evaluated by Western blot. In the pathway, Akt phosphorylation occurs in response to an upstream signal, and 4EBP1 phosphorylation and S6K phosphorylation further occur through mTORC1 in the downstream. The S6K phosphorylation provides a negative feedback to the upstream of the signaling pathway. Western blot was performed as in Example 5-2, except that IL-4 (20 ng/ml), methylcobalamin, and RAD001 (200 nM) were added at 30 minutes before the proteins were collected, and the primary antibodies for detection were changed.

CO[C@H]1C[C@@H]2CC[C@@H](C)[C@@](O)(O2)C(=O)C(=O)N2CCCC[C@H]2C(=O)O[C@H]([C@H](C)C[C@@H]2CC[C@@H](OCCO)[C@H](OC)C2)CC(=O)[C@H](C)/C=C(\C)[C@@H](O)[C@@H](OC)C(=O)[C@H](C)C[C@H](C)/C=C/C=C/C=C/1C [RAD001]
p-4EBP1/4EBP1: suppressed
p-Akt/Akt: rescued
p-S6K/S6K: suppressed
